Assay results published in US11975055B2 (priority 2018, dated 2024).

System: rat model of MRMT-1 induced bone cancer pain
Settings: in vivo

CN1CC[C@]23c4c5ccc(O)c4O[C@H]2[C@@H](O)C=C[C@H]3[C@H]1C5 [Morphine]
paw withdrawal threshold (allodynia induced by bone cancer): reversal of deficit in paw withdrawal threshold
